In patent US4182760A, “Benzophenone anti-oximes, diazepin-N-oxides, and their use as pharmaceutical agents and as intermediates for pharmaceutical agents” (E. I. Du Pont de Nemours and Company, priority 1977, dated 1980):

Experiments:
[1] = tested on: pentylenetetrazole (PTZ) clonic convulsions; experiment: Antipentylenetetrazole (PTZ) test; assay type: in vivo, mouse; conditions: fasted female white mice, intubated (oral), PTZ 40 mg/kg i.v. 30 min later; for ED50: Mus musculus, 0.5 h
Description: (§1) Standard procedures for detecting and comparing the tranquilizer, muscle-relaxant, and sedative activity of compounds in this series for which there is a correlation with human efficacy are the following: pinna reflex tests, prehensile traction reflex tests, a muscle relaxant (anti-Straub tail) test, an antipentylenetetrazole test, and a mouse activity supression test (MAST).
ANTIPENTYLENETETRAZOLE (PTZ) TEST
Fasted female white mice, 10 per dose are intubated with drug in vehicle as above at doses such as 0, 1, 3, 9, 27 and 81 mg/kg. Thirty minutes later the mice are dosed intravenously with PTZ (Metrazol®^1) at 40 mg/kg (ED98 for clonic convulsions). Dosed animals which remain on a 4"×4" platform for 20 seconds are considered protected. Quantal ED50's are calculated by the moving average method.
^1 Original brand of pentylenetetrazole; sterile 10% aqueous solution for parenteral injection, Knoll Pharmaceutical Company.
(§2) Potency in the antipentylenetetrazole (PTZ) and the MAST indicates a potent antianxiety agent. Great potency for blockade of the mouse auditory pinna reflex with little or no effect on tactile pinna reflex is characteristic of minor tranquilizers. Centrally acting skeletal muscle relaxants profoundly affect the lift reflex with little effect on the grip reflex.
(§3) The following table includes the results of these tests conducted with the compounds of this invention; it also includes the results for diazepam and chlordiazepoxide, two well-known benzodiazepines widely-used commercially as tranquilizers.

auditory pinna reflex = experiment: Auditory Pinna Reflex test (loss of auditory pinna reflex); assay type: in vivo, mouse; conditions: fasted female white mice, intubated (oral), tested at 0.5, 2, 5 and 24 hours; for ED50: Mus musculus, read-out: Mouse ED50, Pinna Reflexes, Auditory
Description: as §1
(§4) Fasted female white mice, 5 per dose are intubated with drug at 4, 12, 36, 108 and 324 mg/kg in 1% Methocel®-1.25% Tween 80®, at 10 ml/kg. The auditory and tactile pinna are tested at 0.5, 2, 5 and 24 hours.
The mouse is placed on a horizontal bar 9 cm from a Galton whistle adjusted for 13 Kc. Failure to flatten the ears during one or two short bursts of sound constitutes loss of auditory pinna reflex.
as §2, §3

[2] = tested on: shock-induced suppression of exploratory locomotor behavior; experiment: Mouse activity suppression test (MAST); assay type: in vivo; conditions: fasted female white mice, dosed orally, 0.2 ma shock for 2.0 seconds per crossing; for ED20: Mus musculus, po
Description: as §1
MOUSE ACTIVITY S[…] (MAST)
The mouse activity s[…] (MAST) is a model system designed to detect compounds with possible antianxiety activity in humans. […] The punishment, an electric shock applied through the mouse's paws, quickly extinguishes normal behavior.
The test procedure is modified from Boissier, et al., European J. Pharm., 4, 145-151 (1968). Female white mice, fasted 16-22 hours, are randomly distributed to fiberglass holding boxes. Mice in groups of 10-20 are dosed orally and returned to their holding boxes until test time. Test drug suspensions or solutions are prepared by sonication in 1% Methocel®. Typical dose ranges include 0.5, 1, 2, and 4 mg/kg of 1, 3, 9, 27, 81 mg/kg plus a vehicle control and are selected to include one dose at which an effect such as sedation, stimulation, muscle weakness or analgesia was seen.
The test apparatus is an opaque, black plastic box with a clear lid and a stainless steel grid floor. The floor of the test box is marked off into four squares of equal size.
After dosing, a mouse is gently placed in one corner of the testing box and during the next minute each time the mouse makes a full crossing from one square section of the box to another the floor is electrified with 0.2 ma current for 2.0 seconds.
The number of shocks received by each mouse is recorded and the mean number of shocks/dose (X) is determined. When X drug at any dose is statistically greater than X controls (Kruskal-Wallis test in S. Siegel^1), antagonism of suppression obtains and the drug is presumed to have antianxiety activity.
^1 S. Siegel: Non-parametric Statistics for Behavioral Sciences, pp. 184-194, McGraw-Hill (1956).
as §2, §3

lift reflex = experiment: Prehensile traction test, lift reflex; assay type: in vivo; conditions: loss of lift reflex; for ED50: mouse, read-out: Mouse ED50, Prehensile Reflexes, Lift
Description: as §1, with “prehensile traction” left out
(§5) The mouse is gently swung by the tail toward a horizontal 12 gauge wire tautly stretched 25 cm above the bench. After the mouse grasps the wire with its forepaws, its posterior end is held directly below the wire. A normal mouse grasps the wire with its forepaws and immediately lifts its hind limbs to the wire. Failure to grasp the wire with the forepaws in one of 2 trials constitutes loss of the grip reflex; failure to lift the hind limbs to grasps the wire with at least one hind paw within 5 seconds constitutes loss of the lift reflex.
as §2, §3

tactile pinna reflex = experiment: Tactile Pinna Reflex test (loss of tactile pinna reflex); assay type: in vivo, mouse; conditions: fasted female white mice, intubated (oral), tested at 0.5, 2, 5 and 24 hours; for ED50: Mus musculus, read-out: Mouse ED50, Pinna Reflexes, Tactile
Description: as §1, §4
The mouse is held by the tail and the hairs inside the right ear are touched by the fine wire stylus from a 27 gauge needle. Failure of the mouse to twitch or move the head constitutes loss of the tactile pinna reflex.
as §2, §3

grip reflex = experiment: Prehensile traction test, grip reflex; assay type: in vivo; conditions: loss of grip reflex; for ED50: mouse, read-out: Mouse ED50, Prehensile Reflexes, Grip
Description: as §1, with “prehensile traction” left out
as §5, §2, §3

[3] = tested on: morphine-induced Straub tail; experiment: Muscle relaxant (anti-Straub tail) test; assay type: in vivo, mouse; conditions: fasted female white mice, intubated (oral), morphine sulfate 53.7 mg/kg s.c. at 25 min, observed 30 min after test drug; for ED50: Mus musculus, 0.5 h
Description: as §1
MUSCLE RELAXANT (ANTI-STRAUB TAIL) TEST
Fasted female white mice, 5 per dose are intubated with test drug. Twenty-five minutes later morphine sulfate is given subcutaneously at 53.7 mg/kg. Thirty minutes after test drug the mice are observed for presence of Straub tail. Quantal ED50 values for blockade of morphine-induced Straub tail are calculated.
as §2, §3

Q: How did the ED50 [1] turn out when CNC1=Nc2ccc(Cl)cc2C(c2ccccc2)=[N+]([O-])C1 [Chlordiazepoxide] was run?
A: The ED50 was 4.5 mg/kg.

Q: What about the ED50 (auditory pinna reflex) of the same compound?
A: The ED50 was 17 mg/kg.

Q: What about the ED20 [2] of the same compound?
A: Its ED20 is 1.9 mg/kg.

Q: What about the ED50 (lift reflex) of the same compound?
A: Its ED50 is 11 mg/kg.

Q: And the ED50 (tactile pinna reflex)?
A: Its ED50 is 209 mg/kg.

Q: And the ED50 (grip reflex)?
A: Its ED50 is 232 mg/kg.

Q: And the ED50 [3]?
A: The ED50 was 1.9 mg/kg.

Q: Which results are given for CN1C(=O)CN=C(c2ccccc2)c2cc(Cl)ccc21 [Diazepam]?
A: ED50 [1]: 1.3 mg/kg; ED50 (auditory pinna reflex): 4 mg/kg; ED20 [2]: 0.45 mg/kg; ED50 (lift reflex): 6 mg/kg; ED50 (tactile pinna reflex): 109 mg/kg; ED50 (grip reflex): 97 mg/kg; ED50 [3]: 0.25 mg/kg

Q: What does the source list for CN1C(=O)C(F)[N+]([O-])=C(c2ccccc2)c2cc(Cl)ccc21 (stereo not shown) [(II), 7-Chloro-3-fluoro-1,3-dihydro-1-methyl-5-phenyl-2H-1,4-benzodiazepin-2-one 4-Oxide]?
A: ED50 [1]: 3.9 mg/kg; ED50 (auditory pinna reflex): 62 mg/kg; ED20 [2]: 0.35 mg/kg; ED50 (lift reflex): 62 mg/kg; ED50 (tactile pinna reflex): > 450 mg/kg; ED50 (grip reflex): > 450 mg/kg; ED50 [3]: 1.7 mg/kg

Q: With “5-Chloro-2-(N-methyl-N-chlorofluoroacetamido)benzophenone anti-Oxime [(I)]” as the compound, how does the “Mouse ED50, PTZ” value [1] read?
A: The value was 4.5.

Q: What about the “Mouse ED50, Pinna Reflexes, Auditory” value (auditory pinna reflex) of the same compound?
A: The value was 23.

Q: And the “Mast ED20%” value [2]?
A: Its value is 3.5.

Q: What about the “Mouse ED50, Prehensile Reflexes, Lift” value (lift reflex) of the same compound?
A: Its value is 36.

Q: And the “Mouse ED50, Pinna Reflexes, Tactile” value (tactile pinna reflex)?
A: The value was 360.

Q: What about the “Mouse ED50, Prehensile Reflexes, Grip” value (grip reflex) of the same compound?
A: The value was 70.

Q: What about the “Mouse ED50, Muscle Relaxant” value [3] of the same compound?
A: Its value is 5.8.
